Data from US12012410B2, “Substituted pyrazolo[1,5-a]pyrazines for spinal muscular atrophy” (REBORNA BIOSCIENCES, INC., priority 2018, dated 2024).

Test system: FL-SMN mRNA (SMN transcript containing exons 7 and 8)
Assay: Live-cell assay to measure changes in FL-SMN mRNA levels (qPCR) after exposure to the compounds
Format: cell-based, human
Settings: fibroblasts derived from patients SMA (GM03813); 24 hours incubation
Protocol: In this example, each test compound was administered to cultured cells, and changes in the expression levels of mRNA transcripts of SMN, i.e., FL-SMN containing exons 7 and 8 and Delta7 with exon 7 skipped, were examined using PCR.
Fibroblasts derived from patients SMA (GM03813) (Coriell Cell Repositories) were cultured with passages using DMEM (High Glucose) (Life Technologies) supplemented with 10% FBS (Life Technologies). Cells were seeded in tissue-culture-treated 96-well plates (Corning) at 1.5 or 0.5×10^4 cells/well in 100 μL of medium. The cells were incubated in 5% CO2 for 6 hours, and the medium was replaced with 100 μL of medium (with DMSO, 0.1% final concentration) containing each of the compounds given in the Examples. After additional incubation for 24 hours under the same conditions, the cells were washed once with D-PBS(—) (Wako) and 25 μL/well of the lysis solution (with gDNA Remove) contained in the SuperPrep (registered trademark) Cell Lysis & RT Kit for qPCR (Toyobo life science) was added according to the manufacturer's instructions so that the cells were lysed and the genomic DNA was degraded. Furthermore, 5 μL of the STOP solution (with RNase Inhibitor) contained in the kit was added to provide RNA-containing solutions. Six microliters of the RNA-containing solutions were each mixed with 14 μL of a reverse transcription solution containing transcriptase together with dNTP, random primers and an oligodT primer. Reverse transcription was performed at 37° C. (15 min), 50° C. (5 min), and 98° C. (5 min), to give total cDNAs. The total cDNAs were diluted 30-fold with Ultra-pure water (Invitrogen) to measure the expression levels of FL-SMN, delta7, and GAPDH. For quantitative PCR (qPCR), a PCR solution was prepared according to the instructions of the manufacturer of the THUNDERBIRD (registered trademark) Probe qPCR Mix (Toyobo life science). Five microliters of the diluted total cDNA solutions and oligo DNA standard solutions, each containing either 001-Standard FL-SMN (SEQ ID NO. 1) or 002-Standard delta7 (SEQ ID NO. 2), were each mixed with 10 μL of each of the PCR solutions containing a qPCR probe, primers, and PCR enzyme. […] The oligoDNA standard solutions were prepared as those containing either of 5×10^8, 5×10^7, 5×10^6, 5×10^5, 5×10^4, 5×10^3, 5×10^2, 5×10, 5, or 0 copies. For the oligo DNA standards, primers, and probes, oligonucleotides synthesized by Integrated DNA Technologies, Inc. (IDT) were used. […] FIGS. 3B and 3D show their detection mechanisms. The final concentrations of the primers and probes added were 0.4 μM and 0.15 μM, respectively. The qPCR was performed using the following conditions on a ViiA7 instrument (Applied Biosystems): first stage: 95° C. (1 min)→second stage: 95° C. (15 sec)→third stage: 60° C. (1 min)→40 repeated cycles of the second and third stages. The GAPDH mRNA was used as the internal control, and the commercially available 20×gene expression PCR assay (Life Technologies, 4326317E, Hs99999905_ml) and Standard GAPDH (SEQ ID NO. 7) (see FIG. 1) was used to determine the number of copies of this gene. The measurement values obtained for the samples to be measured were standardized against the respective value obtained for GAPDH.
Using the above-mentioned assays, the activities of the compounds of the Examples were evaluated. Specifically, the percentages of the FL-SMN and delta7 values obtained using DMSO without the compounds and standardized against GAPDH were set as 100% and those of the FL-SMN and delta7 values obtained at the time of administration of the compounds and standardized against GAPDH were calculated. […]

Compound	Percentage of increase (FL-SMN mRNA standardized against GAPDH, DMSO control set as 100%)
Cc1cn2cc(-c3ccc4nc(C5(F)CCN(CC(F)F)CC5)[nH]c(=O)c4c3)cc(F)c2n1 [Example 93, 2-[1-(2,2-difluoroethyl)-4-fluoropiperidin-4-yl]-6-(8-fluoro-2-methylimidazo[1,2-a]pyridin-6-yl)quinazolin-4(3H)-one]	*** (equal to or higher than 150% but lower than 180%)
COCCN1CCC(c2nc3cnc(-c4cc(F)c5nc(C)cn5c4)cc3c(=O)[nH]2)CC1 [Example 112, 6-(8-fluoro-2-methylimidazo[1,2-a]pyridin-6-yl)-2-[1-(2-methoxyethyl)piperidin-4-yl]pyrido[3,4-d]pyrimidin-4(3H)-one]	**** (equal to or higher than 180%)
Cc1cc2oc(-c3nc4ccc(N5CCN(C)CC5)cc4c(=O)[nH]3)cc2c(C)n1 [Example 11, 2-(4,6-Dimethylfuro[3,2-c]pyridin-2-yl)-6-(4-methylpiperazin-1-yl)quinazolin-4(3H)-one]	*** (equal to or higher than 150% but lower than 180%)
Cc1cn2nc(-c3nc4ccc(N5CCNC(C)(C)C5)cc4c(=O)[nH]3)cc2c(C)n1 [Example 122, 6-(3,3-Dimethylpiperazin-1-yl)-2-(4,6-dimethylpyrazolo[1,5-a]pyrazin-2-yl)quinazolin-4(3H)-one bistrifluoroacetate]	**** (equal to or higher than 180%)
Cc1cn2nc(-c3nc4ccc(N5CCN(C)CC5=O)cc4c(=O)[nH]3)cc2c(C)n1 [Example 78, 2-(4,6-dimethylpyrazolo[1,5-a]pyrazin-2-yl)-6-(4-methyl-2-oxopiperazin-1-yl)quinazolin-4(3H)-one]	* (equal to or higher than 100% but lower than 120%)
Cc1cn2cc(-c3ccc4nc(C5CCN(C)CC5)[nH]c(=O)c4c3)c(C)cc2n1 [Example 63, 6-(2,7-dimethylimidazo[1,2-a]pyridin-6-yl)-2-(1-methylpiperidin-4-yl)quinazolin-4(3H)-one]	* (equal to or higher than 100% but lower than 120%)
Cc1cn2nc(-c3nc4c(F)cc(C5CCN(C)CC5)cc4c(=O)[nH]3)cc2c(C)n1 [Example 3, 2-(4,6-Dimethylpyrazolo[1,5-α]pyrazin-2-yl)-8-fluoro-6-(1-methylpiperidin-4-yl)quinazolin-4(3H)-one]	**** (equal to or higher than 180%)
Cc1cn2nc(-c3nc4ccc(N5CCN(C)C[C@H]5C)cc4c(=O)[nH]3)cc2c(C)n1 [Example 128, (R)-6-(2,4-simethylpiperazin-1-yl)-2-(4,6-dimethylpyrazolo[1,5-a]pyrazin-2-yl)quinazolin-4(3H)-one]	**** (equal to or higher than 180%)
CN1CCC(c2ccc3nc(C4=NOC5(CCN(C)CC5)C4)[nH]c(=O)c3c2)CC1 [Example 43, 2-(8-methyl-1-oxa-2,8-diazaspiro[4.5]dec-2-en-3-yl)-6-(1-methylpiperidin-4-yl)quinazolin-4(3H)-one]	* (equal to or higher than 100% but lower than 120%)
Cc1cn2nc(-c3nc4cc(F)c(C5CCN(C)CC5)cc4c(=O)[nH]3)cc2c(C)n1 [Example 1, 2-(4,6-Dimethylpyrazolo[1,5-a]pyrazin-2-yl)-7-fluoro-6-(1-methylpiperidin-4-yl)quinazolin-4(3H)-one]	**** (equal to or higher than 180%)
Cc1cn2nc(-c3nc4ccc(C5CCN(C)CC5)cc4c(=O)[nH]3)cc2c(C)n1 [Example 2, 2-(4,6-Dimethylpyrazolo[1,5-a]pyrazin-2-yl)-6-(1-methylpiperidin-4-yl)quinazolin-4(3H)-one]	**** (equal to or higher than 180%)
CCN1CCC(F)(c2nc3ccc(-c4cc(F)c5nc(C)cn5c4)cc3c(=O)[nH]2)CC1 [Example 92, 2-(1-Ethyl-4-fluoropiperidin-4-yl)-6-(8-fluoro-2-methylimidazo[1,2-a]pyridin-6-yl)quinazolin-4(3H)-one]	**** (equal to or higher than 180%)
Cc1cn2cc(-c3ccc4nc(C5CCN(CC(F)(F)F)CC5)[nH]c(=O)c4c3)ccc2n1 [Example 73, 6-(2-methylimidazo[1,2-a]pyridin-6-yl)-2-[1-(2,2,2-trifluoroethyl)piperidin-4-yl]quinazolin-4(3H)-one]	* (equal to or higher than 100% but lower than 120%)
COc1cccc(-c2nc3ccc(C4CCN(C)CC4)cc3c(=O)[nH]2)n1 [Example 45, 2-(6-methoxypyridin-2-yl)-6-(1-methylpiperidin-4-yl)quinazolin-4(3H)-one]	** (equal to or higher than 120% but lower than 150%)
Cc1cn2cc(-c3cc(F)c4nc(C5(F)CCN(C(C)C)CC5)[nH]c(=O)c4c3)cc(F)c2n1 [Example 99, 8-fluoro-2-(4-fluoro-1-isopropylpiperidin-4-yl)-6-(8-fluoro-2-methylimidazo[1,2-a]pyridin-6-yl)quinazolin-4(3H)-one]	**** (equal to or higher than 180%)
Cc1ccc(-c2nc3ccc(C4CCN(C)CC4)cc3c(=O)[nH]2)c(=O)n1C [Example 44, 2-(1,6-dimethyl-2-oxo-1,2-dihydropyridin-3-yl)-6-(1-methylpiperidin-4-yl)quinazolin-4(3H)-one]	** (equal to or higher than 120% but lower than 150%)
Cc1nc2c(F)cc(-c3ccc4nc(C5CCN(C(C)C)CC5)[nH]c(=O)c4c3)cc2o1 [Example 38, 6-(4-Fluoro-2-methyl-1,3-benzoxazol-6-yl)-2-(1-isopropylpiperidin-4-yl)quinazolin-4(3H)-one]	**** (equal to or higher than 180%)
COCCN1CCC(c2nc3cnc(-c4cc(F)c5nc(C)oc5c4)cc3c(=O)[nH]2)CC1 [Example 113, 6-(4-fluoro-2-methyl-1,3-benzoxazol-6-yl)-2-[1-(2-methoxyethyl)piperidin-4-yl]pyrido[3,4-d]pyrimidin-4(3H)-one]	**** (equal to or higher than 180%)
Cc1cn2cc(-c3nc4ccc(N5CCN(C)CC5)cc4c(=O)[nH]3)cc(C)c2n1 [Example 55, 2-(2,8-dimethylimidazo[1,2-a]pyridin-6-yl)-6-(4-methylpiperazin-1-yl)quinazolin-4(3H)-one]	** (equal to or higher than 120% but lower than 150%)
CCN1CCC(F)(c2nc3c(F)cc(-c4ccc5nc(C)cn5c4)cc3c(=O)[nH]2)CC1 [Example 95, 2-(1-ethyl-4-fluoropiperidin-4-yl)-8-fluoro-6-(2-methylimidazo[1,2-a]pyridin-6-yl)quinazolin-4(3H)-one]	*** (equal to or higher than 150% but lower than 180%)
Cc1cn2cc(-c3ccc4c(=O)n(C5CCN(C)CC5)cnc4c3)ccc2n1 [Example 26, 7-(2-methylimidazo[1,2-a]pyridine-6-yl)-3-(1-methylpiperidin-4-yl) kinazoline-4 (3H)-one]	**** (equal to or higher than 180%)
Cc1cn2cc(-c3ccc4nc(C5CCN(C)CC5)n(C)c(=O)c4c3)ccc2n1 [Example 69, 3-methyl-6-(2-methylimidazo[1,2-a]pyridin-6-yl)-2-(1-methylpiperidin-4-yl)quinazolin-4(3H)-one]	** (equal to or higher than 120% but lower than 150%)
